Laboratory results reported in US8828682B2, “Methods and articles for detecting hemolytic microorganisms” (priority 2008, dated 2014).
Like-named read-outs stand apart in the source and are kept apart here.

How the values were obtained:
[1] = test system: methicillin-resistant S. aureus (strain 565, clinical isolate); type: cell-based, Staphylococcus aureus; settings: 35° C., 10% sheep blood in PBS
Method: (§1) Antibiotic stock solutions (3 mg/mL and 4 mg/mL) were individually prepared in DI water. The solutions were filter-sterilized. The antibiotics included cefoxitin, cefazolin, and cefuroxime. The antibiotics were diluted 1:1000 into PBS/sheep blood aliquots to achieve final antibiotic concentrations of 3 μg/mL and 4 μg/mL, respectively.
(§2) The bacterial suspensions were subjected to two serial 1:100 dilutions in sterile PBS. The diluted suspensions were then further subjected to a 1:100 dilution into each of the respective PBS/sheep blood mixtures containing an antibiotic. One milliliter of each final suspension; containing sheep blood, microorganisms, and an antibiotic in PBS; was into a PAC plate as described above. The plates were incubated at 35° C. for 48 hours. Each plate was checked for colony growth and hemolytic zone after 24 and 48 hours of incubation.

[2] = test system: methicillin-resistant S. epidermidis (strain 497, clinical isolate); experiment: Growth and hemolysis in PAC thin film culture plates with antibiotic in PBS/10% sheep blood diluent; type: cell-based, Staphylococcus epidermidis; settings: 35° C., 10% sheep blood in PBS
Method: as §1, §2

CO[C@@]1(NC(=O)Cc2cccs2)C(=O)N2C(C(=O)O)=C(COC(N)=O)CS[C@@H]21 [Cefo, cefoxitin]
+/+: Growth ([1]; antibiotic 3 μg/mL, 24 hours) | Hemolysis ([1]; antibiotic 3 μg/mL, 24 hours) | Growth ([1]; antibiotic 3 μg/mL, 48 hours) | Hemolysis ([1]; antibiotic 3 μg/mL, 48 hours) | Growth ([1]; antibiotic 4 μg/mL, 24 hours) | Hemolysis ([1]; antibiotic 4 μg/mL, 24 hours) | Growth ([1]; antibiotic 4 μg/mL, 48 hours) | Hemolysis ([1]; antibiotic 4 μg/mL, 48 hours) | Growth ([2]; antibiotic 3 μg/mL, 24 hours) | Growth ([2]; antibiotic 3 μg/mL, 48 hours) | Growth ([2]; antibiotic 4 μg/mL, 24 hours) | Growth ([2]; antibiotic 4 μg/mL, 48 hours)

CO/N=C(\C(=O)N[C@@H]1C(=O)N2C(C(=O)O)=C(COC(N)=O)CS[C@H]12)c1ccco1 [Cefu, cefuroxime]
+/+: Growth ([1]; antibiotic 3 μg/mL, 24 hours) | Hemolysis ([1]; antibiotic 3 μg/mL, 24 hours) | Growth ([1]; antibiotic 3 μg/mL, 48 hours) | Hemolysis ([1]; antibiotic 3 μg/mL, 48 hours) | Growth ([1]; antibiotic 4 μg/mL, 24 hours) | Hemolysis ([1]; antibiotic 4 μg/mL, 24 hours) | Growth ([1]; antibiotic 4 μg/mL, 48 hours) | Hemolysis ([1]; antibiotic 4 μg/mL, 48 hours) | Growth ([2]; antibiotic 3 μg/mL, 24 hours) | Growth ([2]; antibiotic 3 μg/mL, 48 hours) | Growth ([2]; antibiotic 4 μg/mL, 24 hours) | Growth ([2]; antibiotic 4 μg/mL, 48 hours)
